{"source": "patent US20130143855A1", "about": "“METHOD TO ALLEVIATE DIABETIC END STAGE RENAL DISEASE” (BOARD OF REGENTS OF THE UNIVERSITY OF TEXAS SYSTEM, priority 2010, published 2013)", "key": {"[1]": {"test_system": "HF-fed db/db mice with ESRD", "assay": "Kaplan-Meyer survival analysis of HF-fed mice", "type": "in vivo, mouse", "excerpt": "(§1) The mice were challenged with HF (60.3% calories from fat, TD.06414, Harlan Laboratories) starting at 12 weeks of age as depicted in FIG. 1A. The HF challenge was divided into two phases: the first phase lasted 2 weeks followed by a 4-week RD feeding. The second phase of HF feeding followed the 4-week RD interval and continued to the end of the experiments (5 weeks). At the beginning of the second HF feeding, db/db mice were randomly divided into 2 groups and intraperitoneally injected with either Saline (vehicle, db/db-HF-S) or 17-DMAG (6.5 μg/Kg bodyweight, db/db-HF-D). The animal protocols were approved by the Institutional Animal Care and Use Committee (0707-001), UT Health Science Center at San Antonio.\nResults presented as mean±S.E and Student's t-test was used to evaluate the differences between two groups. Kaplan-Meyer survival analysis was performed using the log-rank statistic to test for a significant difference among the survival curves. Differences were considered statistically significant at P<0.05."}, "[2]": {"test_system": "kidney glomeruli and tubules of HF-fed db/db mice", "assay": "Kidney histopathology (HE, PAS, Masson's trichrome) of HF-fed mice", "type": "in vivo, mouse", "excerpt": "(§2) Male db/db (BKS.Cg-m+/+Lepr^db/J), age and sex matched db/+ mice were acquired from Jackson Laboratories at age of 10 weeks and housed 4/cage or less. Animals were habitat for 2 weeks in a temperature- and humidity-controlled facility with a 12:12-h light-dark cycle, fed ad libitum with RD (7012 Teklad LM-485, Harlan Laboratories) and had free access to water.\nas §1\nFormalin-fixed, paraffin-embedded kidney sections were stained with haematoxylin and eosin (HE), periodic acid-Schiff (PAS), or Masson's trichrome and analyzed to evaluate kidney damages in a blinded manner. The area of glomerular PAS staining was measured by image analysis using Image-Pro Plus 4.5 (Media Cybernetics, Silverspring, Md.). A semi-quantitative assessment was performed in HE stained slides to evaluate the extent of tubular damage and graded from 1 to 5 as follows: 1: vacuolation of cytoplasm in <20% of tubules; 2: vacuoles in 20% to 40% of tubules; 3: vacuoles in 40% to 60% tubules with minimal distortion of tubular structures; 4: vacuoles in 60% to 80% of tubules with large and marked distortion of tubular profiles, pyknotic nuclei, patches of tubular atrophy and tubular degeneration; and 5: >80% of tubules with severe vacuolation, or tubular atrophy and degeneration. The fractal collagen volume was assessed by point counter grid using ImageJ (NIH) program to quantify the blue stain in the trichrome-stained sections."}, "[3]": {"test_system": "LA-induced [Ca2+]m efflux in kidney mitochondria", "assay": "Linoleic acid-induced [Ca2+]m efflux in kidney mitochondria", "type": "in vivo, mouse", "procedure": "(§3) Kidney mitochondria were prepared from db/+ or db/db mice and LA-induced [Ca^2+]m and peroxynitrite were assessed as previously described."}, "[4]": {"test_system": "3-nitrotyrosine (3-NT) in kidney", "assay": "3-NT levels in kidney by western blot and immunochemistry", "type": "in vivo, mouse", "details": "db/db-HF-D vs db/db-HF-S", "procedure": "(§4) Western blot or immunochemistry was performed with polyclonal (pAb) and/or monoclonal (mAb) primary antibodies to detect hsp90β1 and 3-NT levels as previously described. The primary antibodies used in western blots were as follows: mAb anti-3-NT (1:1000, clone 1A6, Millipore); rabbit pAb anti-3-NT (1:1000, Millipore); pAb anti-GRP94 (1:1000, Santa Cruz Biotechnology), mAb anti-Complex 1 (1:2000) and mAb anti-α-tubulin (1:1000). For the immunochemistry staining with mouse antibody, a specific procedure was performed as previously described to eliminate the direct interaction between antigen and secondary antibody."}, "[5]": {"test_system": "peroxynitrite generation in kidney mitochondria", "assay": "Linoleic acid-induced peroxynitrite generation in kidney mitochondria", "type": "in vivo, mouse", "details": "db/db-HF-D; did not reach statistical significance; FIG. 4F", "procedure": "as §3"}, "[6]": {"test_system": "polyunsaturated fatty acid-induced mitochondrial Ca2+ efflux (PIMCE)", "details": "applicant's previous studies, basis of the dose; cited from earlier work"}, "hsp90β1 [7]": {"target": "hsp90β1 (Homo sapiens, UniProt P14625)", "sequence (P14625 22-803)": "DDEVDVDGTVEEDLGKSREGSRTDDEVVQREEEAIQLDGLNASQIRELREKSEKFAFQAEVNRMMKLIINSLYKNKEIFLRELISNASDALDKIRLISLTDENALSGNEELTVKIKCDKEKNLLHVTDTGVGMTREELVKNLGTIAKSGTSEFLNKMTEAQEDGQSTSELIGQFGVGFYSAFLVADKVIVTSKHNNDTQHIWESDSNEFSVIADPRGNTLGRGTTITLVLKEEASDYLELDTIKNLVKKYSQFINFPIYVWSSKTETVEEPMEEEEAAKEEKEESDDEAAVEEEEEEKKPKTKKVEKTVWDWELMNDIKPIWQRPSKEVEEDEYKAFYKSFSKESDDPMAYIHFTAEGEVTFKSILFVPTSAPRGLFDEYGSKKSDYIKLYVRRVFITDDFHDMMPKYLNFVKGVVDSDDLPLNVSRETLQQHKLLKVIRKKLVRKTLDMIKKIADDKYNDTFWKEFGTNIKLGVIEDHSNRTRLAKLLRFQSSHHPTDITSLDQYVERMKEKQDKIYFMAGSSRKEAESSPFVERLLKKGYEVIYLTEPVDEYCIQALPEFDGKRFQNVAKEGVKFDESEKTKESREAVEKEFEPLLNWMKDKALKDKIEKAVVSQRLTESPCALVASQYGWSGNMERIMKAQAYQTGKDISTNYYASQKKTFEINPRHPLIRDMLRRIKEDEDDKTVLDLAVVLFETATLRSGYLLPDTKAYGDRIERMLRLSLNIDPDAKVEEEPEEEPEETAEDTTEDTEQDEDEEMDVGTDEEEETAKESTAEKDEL", "details": "prolonged treatment of cells; cited from earlier work"}, "hsp90β1 [8]": {"target": "T1, hsp90β1 (Mus musculus, UniProt P08113)", "T1 construct": "We measured the effect of daily 17-DMAG injection on hsp90β1 levels in the kidney of db/db-HF mice; from tissue; host or cells: kidney homogenate and isolated kidney mitochondria of HF-fed db/db mice", "T1 sequence (P08113 22-802)": "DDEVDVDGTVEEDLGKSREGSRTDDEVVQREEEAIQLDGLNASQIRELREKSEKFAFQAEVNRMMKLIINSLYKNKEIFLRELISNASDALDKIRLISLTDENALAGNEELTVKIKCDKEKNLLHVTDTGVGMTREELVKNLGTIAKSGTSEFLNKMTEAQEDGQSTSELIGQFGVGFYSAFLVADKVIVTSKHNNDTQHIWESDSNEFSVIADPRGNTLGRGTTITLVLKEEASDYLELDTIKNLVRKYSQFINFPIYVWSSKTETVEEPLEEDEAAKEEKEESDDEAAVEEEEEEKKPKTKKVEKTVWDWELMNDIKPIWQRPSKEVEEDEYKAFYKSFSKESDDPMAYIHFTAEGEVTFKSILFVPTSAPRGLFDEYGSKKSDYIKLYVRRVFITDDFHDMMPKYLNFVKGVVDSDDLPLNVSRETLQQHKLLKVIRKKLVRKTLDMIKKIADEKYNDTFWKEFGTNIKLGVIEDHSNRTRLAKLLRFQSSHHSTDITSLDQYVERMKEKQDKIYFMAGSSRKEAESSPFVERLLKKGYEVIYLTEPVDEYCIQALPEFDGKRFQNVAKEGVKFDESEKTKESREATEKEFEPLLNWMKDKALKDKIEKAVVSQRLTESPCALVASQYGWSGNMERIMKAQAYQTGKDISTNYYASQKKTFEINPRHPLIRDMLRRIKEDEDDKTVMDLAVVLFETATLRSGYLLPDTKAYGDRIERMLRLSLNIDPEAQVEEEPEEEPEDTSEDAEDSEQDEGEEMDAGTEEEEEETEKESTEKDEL", "assay": "Western blot of hsp90β1 in kidney homogenate and isolated kidney mitochondria", "type": "in vivo", "details": "db/db-HF-D vs db/db-HF-S, daily injection", "procedure": "as §4"}, "[9]": {"test_system": "db/db mice challenged with high fat diet (HF), ESRD model", "assay": "Kidney function of HF-fed db/db mice (24 h urinary albumin, urine output, serum creatinine)", "type": "in vivo, mouse", "excerpt": "as §2, §1\nUrine collection and other physical parameters were measured following the schedule in FIG. 1A. 24 h urine samples were collected from individual mice and urinary albumin concentration was determined using a murine albumin enzyme-linked immunosorbent assay (Albuwell M Kit; Exocell, Philadelphia, Pa.). Serum creatinine concentrations were determined by the Creatinine Companion kit (Exocell)."}, "[10]": {"details": "db/db-HF-D vs db/db-HF-S, FIG. 2G/2H"}}}
{"substance": "17-dimethylaminoethylamino-17-demethoxygeldanamycin [17-DMAG]", "values": [{"measurement": "mortality in HF-fed db/+ mice", "setting": "[1]; db/+-HF-S and db/+-HF-D groups", "value": "no mortality"}, {"measurement": "survival rate", "setting": "[1]; db/db-HF-D vs db/db-HF-S, log-rank, FIG. 3", "value": "significantly improved"}, {"measurement": "glomerular and tubular abnormalities in HF-fed db/+ mice", "setting": "[2]; HF-fed db/+ mice treated with 17-DMAG, FIG. 2B", "value": "did not exhibit any glomerular and tubular abnormalities"}, {"measurement": "tubular vacuolation", "setting": "[2]; db/db-HF-D group (also in db/db-HF-S)", "value": "evidenced"}, {"measurement": "segmental glomerulosclerosis (HE staining, 100×)", "setting": "[2]; db/db-HF-D vs db/db-HF-S, FIG. 2C/2D", "value": "largely prevented"}, {"measurement": "tubular atrophy and degeneration (HE staining)", "setting": "[2]; db/db-HF-D vs db/db-HF-S, FIG. 2E/2F", "value": "dramatic protection"}, {"measurement": "segmental glomerulosclerosis and mesangial matrix expansion (PAS, 200×), glomerular lesions", "setting": "[2]; [10]", "value": "amiiorated"}, {"measurement": "tubulointerstitial fibrosis (PAS-stained tubulointerstitium)", "setting": "[2]; [10]", "value": "largely prevented"}, {"measurement": "accumulation of tubulointerstitial collagen (Masson's trichrome)", "setting": "[2]; db/db-HF-D vs db/db-HF-S, FIG. 2I/2J", "value": "effectively reduced"}, {"measurement": "tubular damage (index, morphometric quantification)", "setting": "[2]; db/db-HF-D vs db/db-HF-S, FIG. 2K", "value": "significant alleviation"}, {"measurement": "mesangial matrix expansion (morphometric quantification)", "setting": "[2]; db/db-HF-D vs db/db-HF-S, FIG. 2L", "value": "significant alleviation"}, {"measurement": "collagen accumulation (morphometric quantification)", "setting": "[2]; db/db-HF-D vs db/db-HF-S, FIG. 2M", "value": "significant alleviation"}, {"measurement": "rate and amplitude of LA-induced [Ca2+]m signal, difference between db/db-HF-D and db/+ groups", "setting": "[3]; db/db-HF-D vs db/+", "value": "no significant differences"}, {"measurement": "LA-induced [Ca2+]m efflux in kidney mitochondria", "setting": "[3]; db/db-HF-D vs db/db-HF-S, FIG. 4C-E", "value": "significantly diminished"}, {"measurement": "rate and amplitude of LA-induced [Ca2+]m responses", "setting": "[3]; db/db-HF-D vs db/db-HF-S, FIG. 4D, 4E", "value": "effectively attenuated"}, {"measurement": "3-NT in kidney sections by immunohistochemistry", "setting": "[4]; FIG. 5C-E", "value": "effectively reduced"}, {"measurement": "3-NT level, bands with MW<50kDa, western blot with polyclonal anti-3-NT antibody", "setting": "[4]; kidney homogenates, FIG. 5A", "value": "significant 3-NT level reduction"}, {"measurement": "3-NT levels in proteins <50 kDa, western blot with monoclonal antibody", "setting": "[4]; kidney homogenates, FIG. 5B", "value": "significantly lowered"}, {"measurement": "LA-induced peroxynitrite generation", "setting": "[5]", "value": "attenuated"}, {"measurement": "inhibition on PIMCE", "setting": "[6]", "value": "maximal inhibition"}, {"measurement": "toxicity to cells", "setting": "[6]", "value": "did not produce apparent toxicity"}, {"measurement": "degradation and downregulation of hsp90β1", "setting": "hsp90β1 [7]", "value": "caused degradation and downregulation"}, {"measurement": "hsp90β1 levels in kidney homogenates", "setting": "hsp90β1 [8]; FIG. 4A", "value": "similar"}, {"measurement": "hsp90β1 levels in isolated kidney mitochondria", "setting": "hsp90β1 [8]; FIG. 4B", "value": "significantly reduced"}, {"measurement": "24 h urine output", "setting": "[9]; db/db-HF-D (6.5 μg/kg i.p. daily) vs db/db-HF-S, from 17th day of second HF feeding, FIG. 1E", "value": "significantly preserved"}, {"measurement": "24 h urinary albumin excretion (albuminuria)", "setting": "[9]; db/db-HF-D (6.5 μg/kg i.p. daily, second HF challenge) vs db/db-HF-S, FIG. 1D", "value": "significantly diminished"}, {"measurement": "serum creatinine, difference between db/db-HF-D and db/+ groups", "setting": "[9]; db/db-HF-D, 6.5 μg/kg i.p. daily", "value": "no significant difference"}, {"measurement": "serum creatinine compared to db/db-HF-S group", "setting": "[9]; db/db-HF-D, 6.5 μg/kg i.p. daily, FIG. 1F", "value": "significantly lowered"}]}
